The source of these data is patent EP0235259B1, “NOVEL TRANSDERMAL ANTI-ANGINAL PHARMACEUTICAL DOSAGE UNIT AND PROCESS FOR ITS ADMINISTRATION” (RUTGERS, THE STATE UNIVERSITY OF NEW JERSEY, priority 1985, dated 1987).

Like-named read-outs stand apart in the source and are kept apart here.

The test system of the data set is skin from a "hairless" mouse or human cadaver. The experiment in a line: transdermal absorption (skin permeation) of nitroglycerin from polymer matrix dosage units, procedure of Keshary and Chien. Particulars: for Enhancement Factor: Table XIV, 15% W/W nitroglycerin in DC-382 matrix. An excerpt: Enhancing Factor is defined as the ratio of normalized permeation rate [in mcg/cm²/hr] of a dosage unit of this invention with skin permeation enhancer/the normalized permeation rate of a corresponding dosage unit without enhancer in the adhesive layer.
Pharm., 10 (6) 883-913(1984).

As to `CCCCCCCCCCCCCC(=O)OCC(CO)OC(=O)CCCCCCCCCCCCC` (racemic) [1,2-Dimyristoyl-RAC-Glycerol], the “Skin Permeation Rate Without” value is recorded as 39.4 ± 4.32 mcg/cm²/hr. Moreover, where the note is “1.6 mg/cm²”, the “Enhancing Factor” value is 1.03 and the “Skin Permeation Rate With” value worked out at 40.64 ± 4.27 mcg/cm²/hr.
On the same counts, the results for `CCCCCCCCCCCCCC(=O)OCC(O)COC(=O)CCCCCCCCCCCCC` (racemic) [1,3-Dimyristoyl-RAC-Glycerol] are 34.1 ± 1.62 mcg/cm²/hr, 0.94 and 32.13 ± 6.94 mcg/cm²/hr.
On to `CCCCCCCCCCCCCC(=O)OCC(O)CO` (racemic) [1-Monomyristoly-RAC-Glycerol], for which the “Skin Permeation Rate With” value is recorded as 29.88 ± 3.84 mcg/cm²/hr and the “Skin Permeation Rate Without” value was found to be 34.1 ± 1.62 mcg/cm²/hr.
As for `CCCCCCCCCCCCCCCC(=O)OCC(O)CO` (racemic) [1-Monopalmitoyl-RAC-Glycerol], the “Skin Permeation Rate Without” value was found to be 34.1 ± 1.62 mcg/cm²/hr. Also, where the note is “1.6 mg/cm²”, the “Enhancing Factor” value amounted to 0.86 and the “Skin Permeation Rate With” value came to 29.39 ± 1.76 mcg/cm²/hr.
Take `CCCCCCCCCC(=O)O` [Enhancer B, Decanoic acid]: the “Enhancing Factor” value by setting is: (0.8 mg/cm²) 2.59; (1.59 mg/cm²) 4.11; (3.18 mg/cm²) 4.41.
As to `CCCCCCCCCCCCCC(=O)OCCC` [Enhancer C, Propyl myristate], the “Enhancing Factor” value runs as follows: (0.8 mg/cm²) 1.67; (1.59 mg/cm²) 1.92; (3.18 mg/cm²) 3.07; (4.78 mg/cm²) 3.41.
Turning to `CCCCCCCC/C=C\CCCCCCCC(=O)OCCC` [Enhancer D, Propyl oleate], the “Enhancing Factor” value is, setting by setting: (0.8 mg/cm²) 1.22; (1.59 mg/cm²) 2.43; (3.18 mg/cm²) 3.08; (4.78 mg/cm²) 3.78.
For the compound `CCCCCCCC/C=C\CCCCCCCCO` [Enhancer E, Oleyl alcohol], the “Enhancing Factor” value (0.8 mg/cm²) is given as 1.69, the “Enhancing Factor” value (1.59 mg/cm²) is listed as 2.82 and the “Enhancing Factor” value (3.18 mg/cm²) worked out at 2.65.
As for `CCCCCCCCCC[S+](C)[O-]` (centres unmarked) [Enhancer G, Decylmethyl sulfoxide], the “Enhancing Factor” value reads like this: (0.8 mg/cm²) 1.61; (1.59 mg/cm²) 1.87; (2.4 mg/cm²) 2.02; (5 mg/cm²) 1.36; (10 mg/cm²) 1.22.
Regarding `CCCCCCCCCCCCCC(=O)N(C)C` [Enhancer H, Myristic acid, N,N-dimethylamide], the “Enhancing Factor” value (0.8 mg/cm²) is on record as 1.3, the “Enhancing Factor” value (1.59 mg/cm²) is on record as 2.0, the “Enhancing Factor” value (3.18 mg/cm²) was 1.6 and the “Enhancing Factor” value (4.78 mg/cm²) was 1.5.
Turning to `O=[N+]([O-])OCC(CO[N+](=O)[O-])O[N+](=O)[O-]` [NITROGLYCERIN, nitroglycerin, reference compound], the “Enhancement Factor” value runs as follows: (enhancers (mg/cm²): (+) menthol 0.8 + capric acid 0.8 + Methyl Salicylate 0.8) 3.36; (enhancers (mg/cm²): (+) menthol 0.8 + capric acid 0.8 + Oleyl alcohol 0.8) 5.29; (enhancers (mg/cm²): (+) menthol 0.8 + capric acid 0.8 + Oleyl alcohol 1.6) 4.61; (enhancers (mg/cm²): (+) menthol 0.8 + capric acid 0.8 + Salicylic acid 0.8) 3.47.
